In patent US10000486B2 (priority 2012, dated 2018):
Where a name gives a salt, the structure may show the parent alone.

Key:
[1] = test system: Lassa GP-pseudotyped-virus; test: microbe, parasite or virus in culture; format: cell-based, Lassa fever virus; details: Human immunodeficiency virus 1, read-out: Activity (EC50 in μM vs. pseudotyped virus) Lassa
[2] = test system: Machupo pseudotyped virus; test: organism not typed; format: cell-based; details: read-out: Activity (EC50 in μM vs. pseudotyped virus) Machupo
VSVg pseudotyped virus = test: organism not typed; format: cell-based; details: read-out: Activity (EC50 in μM vs. pseudotyped virus) VSVg
Junín pseudotyped virus = test: organism not typed; format: cell-based; details: read-out: Activity (EC50 in μM vs. pseudotyped virus) Junín

| SMILES | EC50 [1] | EC50 [2] | EC50 (VSVg pseudotyped virus) | EC50 (Junín pseudotyped virus) |
| --- | --- | --- | --- | --- |
| CC(C)Oc1ccc(-n2cnc3cc(C4CC4c4ccc(C(C)(C)C)cc4)ccc32)cc1 (centres unmarked) [Compound 36, 5-[2-(4-tert-butylphenyl)cyclopropyl]-1-(4-isopropoxyphenyl)-benzimidazole] | < 1 µM | < 1 µM | 10 to 50 µM | < 1 µM |
| CCOc1ccc(-n2cnc3cc(/C=C/c4ccc(CC)cc4)ccc32)cc1 [Compound 1, 1-(4-ethoxyphenyl)-5-[(E)-2-(4-ethylphenyl)vinyl]benzimidazole] | < 1 µM | < 1 µM | 10 to 50 µM |  |
| CC(C)Oc1ccc(-n2cnc3cc(/C=C\c4ccc(C5(O)COC5)cc4)ccc32)cc1 [Compound 53, 3-[4-[(Z)-2-[1-(4-isopropoxyphenyl)benzimidazol-5-yl]vinyl]phenyl]oxetan-3-ol] | < 1 µM | < 1 µM | 1 to 10 µM | < 1 µM |
| CCOc1ccc(-n2cnc3cc(CNc4ccc(CC)cc4)ccc32)cc1 [Compound 34, N-[[1-(4-ethoxyphenyl)benzimidazol-5-yl]methyl]-4-ethyl-aniline] | < 1 µM | < 1 µM | 10 to 50 µM | < 1 µM |
| CCc1ccc(/C=C/c2ccc3c(c2)ncn3-c2ccc(OC(C)C)cc2)cc1 [Compound 8, 5-[(E)-2-(4-ethylphenyl)vinyl]-1-(4-isopropoxyphenyl)-benzimidazole] | < 1 µM | < 1 µM | 10 to 50 µM | < 1 µM |
| CC(C)Oc1ccc(-n2cnc3cc(/C=C\c4ccc(C5(O)CC5)cc4)ccc32)cc1 [Compound 48, 1-[4-[(Z)-2-[1-(4-isopropoxyphenyl)benzimidazol-5-yl]vinyl]phenyl]cyclopropanol] | < 1 µM | < 1 µM | 10 to 50 µM | < 1 µM |
| CC(C)Oc1ccc(-n2cnc3cc(/C=C\c4ccc(C(C)(O)C(=O)O)cc4)ccc32)cc1 (centres unmarked) [Compound 55, 2-hydroxy-2-[4-[(Z)-2-[1-(4-isopropoxyphenyl)benzimidazol-5-yl]vinyl]phenyl]propanoic acid] | < 1 µM |  | > 50 µM |  |
| CC(C)Oc1ccc(-n2cnc3cc(/C=C\c4ccc(C(O)(C(F)(F)F)C(F)(F)F)cc4)ccc32)cc1 [Compound 47, 1,1,1,3,3,3-hexafluoro-2-[4-[(Z)-2-[1-(4-isopropoxyphenyl)benzimidazol-5-yl]vinyl]phenyl]propan-2-ol] | < 1 µM | < 1 µM | 1 to 10 µM |  |
| CCOc1ccc(-n2c[n+]([O-])c3cc(NCc4ccc(CC)cc4)ccc32)cc1 [Compound 67, 1-(4-ethoxyphenyl)-N-[(4-ethylphenyl)-methyl]-3-oxido-benzimidazol-3-ium-5-amine] | < 1 µM | < 1 µM | 10 to 50 µM | < 1 µM |
| CC(C)Oc1ccc(-n2cnc3cc(/C=C\c4ccc(C5(O)CCC5)cc4)ccc32)cc1 [Compound 52, 1-[4-[(Z)-2-[1-(4-isopropoxyphenyl)benzimidazol-5-yl]vinyl]phenyl]cyclobutanol] | < 1 µM | < 1 µM | 1 to 10 µM | < 1 µM |
| CCOc1ccc(-n2cnc3cc(/C=C\c4ccc(OC(F)(F)F)cc4)ccc32)cc1 [Compound 11, 1-(4-ethoxyphenyl)-5-[(Z)-2-[4-(trifluoromethoxy)phenyl]vinyl]benzimidazole] | < 1 µM | < 1 µM | 10 to 50 µM | < 1 µM |
| CC(C)Oc1ccc(-n2cnc3cc(/C=C\c4ccc(C5(O)CCCCC5)cc4)ccc32)cc1 [Compound 57, 1-[4-[(Z)-2-[1-(4-isopropoxyphenyl)benzimidazol-5-yl]vinyl]phenyl]cyclohexanol] | < 1 µM | < 1 µM | 1 to 10 µM |  |
| CCOc1ccc(-n2ccc3cc(NCc4ccc(CC)cc4)ccc32)cc1 [Compound 63, 1-(4-ethoxyphenyl)-N-[(4-ethylphenyl)-methyl]indol-5-amine] | < 1 µM | < 1 µM | 10 to 50 µM |  |
| CCOc1ccc(-n2cnc3cc(/C=C/c4ccc(C(C)(C)C)cc4)ccc32)nc1 [Compound 20, 5-[(E)-2-(4-tert-butylphenyl)vinyl]-1-(5-ethoxy-2-pyridyl)benzimidazole hydrochloride] | < 1 µM |  | 1 to 10 µM |  |
| CC(C)Oc1ccc(-n2cnc3cc(/C=C\c4ccc(C(C)(C)O)cc4)ccc32)nc1 [Compound 42, 2-[4-[(Z)-2-[1-(5-isopropoxy-2-pyridyl)benzimidazol-5-yl]vinyl]phenyl]propan-2-ol] | < 1 µM | < 1 µM | 1 to 10 µM |  |
| CCOc1ccc(-n2cnc3cc(C#Cc4ccc(CC)cc4)cnc32)cc1 [Compound 26, 3-(4-ethoxyphenyl)-6-[2-(4-ethylphenyl)-ethynyl]imidazo[4,5-b]pyridine] | 1 to 10 µM | 10 to 50 µM | 10 to 50 µM | 1 to 10 µM |
| CC(C)Oc1ccc(-n2cnc3cc(/C=C\c4ccc(C(C)(O)C(F)(F)F)cc4)ccc32)cc1 (centres unmarked) [Compound 46, 1,1,1-trifluoro-2-[4-[(Z)-2-[1-(4-isopropoxyphenyl)benzimidazol-5-yl]vinyl]phenyl]propan-2-ol] | < 1 µM | < 1 µM | 1 to 10 µM |  |

| SMILES | EC50 [1] | EC50 [2] | EC50 (VSVg pseudotyped virus) | EC50 (Junín pseudotyped virus) |
| --- | --- | --- | --- | --- |
| CC(C)Oc1ccc(-n2cnc3cc(/C=C\c4ccc(C(C)(C)C(F)(F)F)cc4)ccc32)cc1 [Compound 43, 1-(4-isopropoxyphenyl)-5-[(Z)-2-[4-(2,2,2-trifluoro-1,1-dimethyl-ethyl)phenyl]vinyl]benzimidazole] | < 1 µM | < 1 µM | 1 to 10 µM |  |
| CC(C)Oc1ccc(-n2cnc3cc(/C=C/c4ccc(C(C)(C)C)cc4)ccc32)cc1 [Compound 6, 5-[(E)-2-(4-tert-butylphenyl)vinyl]-1-(4-isopropoxyphenyl)-benzimidazole] | < 1 µM |  | 10 to 50 µM |  |
| CCOc1ccc(-n2cnc3cc(OCc4ccc(CC)cc4)ccc32)cc1 [Compound 29, 1-(4-ethoxyphenyl)-5-[(4-ethylphenyl)-methoxy]benzimidazole] | < 1 µM | < 1 µM | 10 to 50 µM | < 1 µM |
| COc1ccc(-n2cnc3cc(/C=C/c4ccc(C(C)C)cc4)ccc32)cc1 [Compound 3, 5-[(E)-2-(4-isopropylphenyl)vinyl]-1-(4-methoxyphenyl)benzimidazole] | 1 to 10 µM |  | 10 to 50 µM |  |
| CCOc1ccc(-n2cnc3cc(/C=C/c4ccc(CC)cc4)cnc32)cc1 [Compound 23, 3-(4-ethoxyphenyl)-6-[(E)-2-(4-ethylphenyl)vinyl]imidazo[4,5-b]pyridine] | 1 to 10 µM |  | > 50 µM |  |
| CCc1ccc(/C=C/c2ccc3c(c2)ncn3-c2ccc(OC(C)(C)C)cc2)cc1 [Compound 14, 1-(4-tert-butoxyphenyl)-5-[(E)-2-(4-ethylphenyl)-vinyl]benzimidazole] | 1 to 10 µM |  | 10 to 50 µM |  |
| CCCCC(O)(CCCC)c1ccc(/C=C\c2ccc3c(c2)ncn3-c2ccc(OC(C)C)cc2)cc1 [Compound 41, 5-[4-[(Z)-2-[1-(4-isopropoxyphenyl)benzimidazol-5-yl]vinyl]phenyl]nonan-5-ol] | < 1 µM | < 1 µM | 10 to 50 µM |  |
| CC(C)(C)Oc1ccc(-n2cnc3cc(/C=C/c4ccc(C(C)(C)C)cc4)ccc32)cc1 [Compound 16, 1-(4-tert-butoxyphenyl)-5-[(E)-2-(4-tert-butylphenyl)vinyl]benzimidazole] | 1 to 10 µM |  | 10 to 50 µM |  |
| CC(C)Oc1ccc(-n2cnc3cc(/C=C\c4ccc(CCC=O)cc4)ccc32)cc1 [Compound 44, 3-[4-[(Z)-2-[1-(4-isopropoxyphenyl)benzimidazol-5-yl]vinyl]phenyl]propanal] | < 1 µM |  | 10 to 50 µM |  |
| CC(C)Oc1ccc(-n2cnc3cc(/C=C\c4ccc(C5(O)CCCC5)cc4)ccc32)cc1 [Compound 56, 1-[4-[(Z)-2-[1-(4-isopropoxyphenyl)benzimidazol-5-yl]vinyl]phenyl]cyclopentanol] | < 1 µM | < 1 µM | 1 to 10 µM |  |
| CCOc1ccc(-n2cnc3ccc(CCc4ccc(CC)cc4)cc32)cc1 [Compound 35, 1-(4-ethoxyphenyl)-6-[2-(4-ethylphenyl)-ethyl]benzimidazole] | < 1 µM | < 1 µM | 10 to 50 µM |  |
| CCOc1ccc(-n2cnc3cc(/C=C/c4ccc(CC)cc4)ccc32)nc1 [Compound 18, 1-(5-ethoxy-2-pyridyl)-5-[(E)-2-(4-ethylphenyl)vinyl]benzimidazole hydrochloride] | < 1 µM |  | 10 to 50 µM | 1 to 10 µM |
| COc1ccc(-n2cnc3cc(/C=C/c4ccc(C(C)C)cc4)cnc32)cc1 [Compound 25, 6-[(E)-2-(4-isopropylphenyl)vinyl]-3-(4-methoxyphenyl)imidazo[4,5-b]pyridine] | 1 to 10 µM |  | > 50 µM |  |
| CCOc1ccc(-n2ccc3cc(NCc4ccc(CC)cc4)cnc32)cc1 [Compound 66, 1-(4-ethoxyphenyl)-N-[(4-ethylphenyl)-methyl]pyrrolo[2,3-b]pyridin-5-amine] | < 1 µM | 1 to 10 µM | > 50 µM |  |
| CCOc1ccc(-n2cnc3cc(/C=C/c4ccc(C(C)(C)C)cc4)ccc32)cc1 [Compound 4, 5-[(E)-2-(4-tert-butylphenyl)vinyl]-1-(4-ethoxyphenyl)-benzimidazole] | < 1 µM |  | 10 to 50 µM |  |
| CCOc1ccc(Cn2cnc3cc(NCc4ccc(CC)cc4)cnc32)cc1 [Compound 62, 3-[(4-ethoxyphenyl)methyl]-N-[(4-ethylphenyl)-methyl]imidazo[4,5-b]pyridin-6-amine] | 1 to 10 µM | 1 to 10 µM | 1 to 10 µM |  |
| CC(C)Oc1ccc(-n2cnc3cc(/C=C\c4ccc(C#N)cc4)ccc32)cc1 [Compound 49, 4-[(Z)-2-[1-(4-isopropoxyphenyl)benzimidazol-5-yl]vinyl]benzonitrile] | < 1 µM |  | 10 to 50 µM |  |
